pIC50: −log10 of the molar value.
Experiments:
[1] = system: rat CCl4 model of liver fibrosis; assay: Rat CCl4 model of liver fibrosis; format: in vivo; conditions: 20 mg/kg i.p. weekly, 8 weeks CCl4
Description: To examine the effects of 4A3COOHmethyl on fibrosis, adult male rats were treated with 20 mg/kg body weight by i.p. injection every week during an 8 week twice weekly treatment with CCl4, to generate liver fibrosis. A reduced dose of 20 mg/kg body weight was chosen because the compound was to be administered to rats with compromised liver function. To avoid potential interactions with CCl4, toxicity (i.e., reductions in CCl4 hepatotoxicity that could be misinterpreted as anti-fibrogenic effects), 4A3COOHmethyl was not administered within a 48 hour period of CCl4 administration. Previous work has established that a similar dose of PCN – using the same dosing regimen – is sufficient to modulate fibrosis in animal models of fibrosis.
Figure 7 4A3COOHmethyl administration and liver fibrosis in a rat CCl4 model of liver fibrosis. […] Mean and standard deviation serum ALT (a); Mean and standard deviation collagen 1A1 mRNA levels (b); typical views of liver sections stained for sirius red, with a 100 μm scale bar (b); quantitative image analysis for fibrosis – data are the mean and standard deviation percentage sirius red staining from at least 4 separate animals in each treatment with at least 10 randomly selected fields examined for each animal (c). […]

[2] = system: CYP3A1/3A23; assay: Screening for PXR activators in rat hepatocytes via CYP3A induction (Western blot); format: cell-based; conditions: rat
[3] = system: CYP3A4; assay: Screening for PXR activators in human hepatocytes via CYP3A induction (Western blot); format: cell-based; conditions: human
[4] = biological target: low affinity glucocorticoid binding site (LAGS) in rat liver microsomes (Rattus norvegicus, UniProt P70580); assay: Competition with radiolabelled dexamethasone for specific binding to rat liver microsomes (LAGS activity); conditions: read-out: IC50% (competition of substituted progestins for binding to rat liver microsomes); Additional file 1; vs radiolabelled dexamethasone
Sequence of low affinity glucocorticoid binding site (LAGS) in rat liver microsomes (P70580 2-195): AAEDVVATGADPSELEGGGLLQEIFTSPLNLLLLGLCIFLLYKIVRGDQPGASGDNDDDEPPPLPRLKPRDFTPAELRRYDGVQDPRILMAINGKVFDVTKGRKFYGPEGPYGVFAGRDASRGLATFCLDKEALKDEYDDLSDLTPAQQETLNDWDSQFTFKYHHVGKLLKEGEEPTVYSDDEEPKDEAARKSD
Description: A small volume of each incubation was removed to determine the total ligand concentration ([L0]) prior to removal of free unbound ligand by dextran/charcoal adsorption. […] Free ligand concentration at equilibrium was calculated by subtracting specifically bound ligand at equilibrium from the total ligand concentration (i.e. [L0] - [LRe]) and assumes receptor-ligand stoichiometry of 1:1.
In brief, rats were anaesthetized with pentobarbital and a 16G cannula inserted into the hepatic portal vein and secured. […] The liver was then excised and chopped roughly with ice-cooled TS buffer (10 mM Tris/HCl pH 7.4 containing 250 mM sucrose) and disrupted using a Potter-Elvehjem homogenisor. The resultant homogenate was then centrifuged at 12,000 g for 20 minutes at 4°C and the supernatant retained and centrifuged at 100,000 g for 60 minutes at 4°C. The resultant "microsomal" pellet was re-suspended in fresh TS buffer and re-centrifuged at 100,000 g to obtain a washed microsomal pellet. […] After overnight incubation on ice, free ligand was removed by charcoal dextran adsorption and bound radioligand determined in supernatants by liquid scintillation, essentially as previously described.

[5] = system: human HSCs; assay: Human HSC trans-differentiation/proliferation (confluence, α-sma); format: cell-based; conditions: confluence at day 12
Description: (§1) Figure 5 Screening for inhibitors of trans-differentiation in rat and human HSCs – Part 1. Rat HSCs were isolated and cultured for 2 days (T0) whereupon cells were treated with the indicated compound as outlined in methods section. After 9 days, cells were analyzed by Western blotting for α-smooth muscle actin (α-sma). Each lane contains 10 μg total protein/lane, results typical of at least 3 separate experiments (a). Human HSCs were treated with the indicated compound and confluence determined in randomly selected fields. Data are the mean and standard deviation confluence at day 12 of 3 separate treatment dishes from the same donor, typical of at least 3 separate donors (b).
Figure 6 Screening for inhibitors of trans-differentiation in rat and human HSCs – Part 2. Photomicrographs of human HSCs at day 12 of culture with the indicated treatment (a); levels of expression of α-smooth muscle actin (α-sma) (b) and levels of expression of fibrogenic marker mRNA transcripts in human HSCs after treatment selected compounds for 19 days. Data are the mean and standard deviation relative transcript level from 3 separate treatments on cells from the same donor, typical of at least 3 separate donors (c).
(§2) HSCs were isolated from rats (250–300 g body weight, Harlan, UK) by sequential pronase/collagenase perfusion of the liver followed by density gradient centrifugation and elutriation as previously outlined. Human HSCs were isolated by an essentially similar procedure using discarded tissue from patients undergoing a hepatectomy with patient consent and ethical approval by the Grampian Regional Ethical Committee. HSCs were seeded onto plastic culture dishes and cultured in Dulbecco's modified Eagle Medium (DMEM) containing 4.5 g/l of glucose and supplemented with 5% or 16% (v/v) fetal calf serum (for rat or human respectively), […] penicillin, 80 μg/ml streptomycin and 32 μg/ml gentamycin. Additional treatments were made by addition of compounds in an ethanol vehicle (stock solutions at 1000× final concentration). Ethanol at 0.1% (v/v) acted as control. Frequency of treatment (3 treatments per week/2 medium changes per week), as previously described.

[6] = Pilot toxicity study in adult male rats; format: in vivo, rat; conditions: 3 days at up to 100 mg/kg body weight i.p.; 24 hours after final treatment
Description: Since there was no information in the literature regarding any potential adverse effects of 4A3COOHmethyl administration, a pilot toxicity study was initially undertaken, in which adult male rats were administered 4A3COOHmethyl for 3 days at up to 100 mg/kg body weight by i.p. injection.

[7] = system: human myofibroblasts; assay: Fibrogenic marker mRNA transcripts (TGFβ, TIMP1, collagen 1A1) in human myofibroblasts, qRT-PCR; format: cell-based; conditions: treatment for 19 days
Text: Quantitative transcript expression was examined after reverse transcription (using a Taqman reverse transcription kit (Applied Biosystems)) using a PE Applied Biosystems ABI7700 and PE Applied Biosystems Gene Expression Assay™, incorporating sequence-specific forward, reverse and fluorescently labelled probes (see Table 2).

[8] = system: rat HSCs; assay: Rat HSC-to-myofibroblast trans-differentiation (α-smooth muscle actin Western blot); format: cell-based; conditions: α-sma Western blot after 9 days of treatment
Description: as §1, §2

Question: What does the source list for `COC(=O)[C@H]1CC[C@H]2[C@@H]3CCC4=CC(=O)CC[C@]4(C)[C@H]3CC[C@]12C` [4A3COOHmethyl, 4 androstene-3-one 17β-carboxylic acid methyl ester]?
Answer: fibrosis severity (α-sma staining, collagen 1a1 mRNA, sirius red staining) [1]: did not significantly affect; serum levels of ALT [1]: did not affect; activity as a PXR activator, rat [2]: no activity; activity as a PXR activator, human [3]: no activity; pIC50 [4]: 7.00; inhibitory activity on human HSC trans-differentiation [5]: significant inhibitory activity; adverse effects (liver serum enzyme levels and liver pathology) [6]: no adverse effects were observed; expression of TGFβ, TIMP1 and collagen 1A1 mRNAs in human myofibroblasts [7]: inhibited the expression of all mRNAs; inhibition of rat HSC trans-differentiation [8]: effective
